# Results from ChEMBL document CHEMBL1143396, “Additivity in the analysis and design of HIV protease inhibitors” (J Med Chem, 2009).
# Target: Human immunodeficiency virus type 1 protease (Human immunodeficiency virus 1, UniProt Q72874, Q7K)
# Test: Inhibition of HIV1 protease Q7K mutant by FRET method
SMILES,Ki (read-out: Ki) [µM],Ki (read-out: pKi (converted)) [µM]
COc1cccc(S(=O)(=O)N(CC2CC2)C[C@@H](O)[C@H](Cc2ccccc2)NC(=O)c2cccc(C)n2)c1,14.6,14.5
CC(=O)/C=C/C(=O)N[C@@H](Cc1ccccc1)[C@H](O)CN(Cc1cccs1)S(=O)(=O)c1cnoc1C,26.3,26.3
